pIC50: −log10 of the molar value.
What was measured:
[1] = target: T1, cloned human MC4R (Homo sapiens, UniProt P32245); assay: Membrane binding assay: competitive inhibition of [125I]NDP-α-MSH binding; details: for inhibition at 10 µM: read-out: Displacement Rate (%) (at 10 μM); for pIC50: read-out: MC4R IC50
T1 construct: made in house; host or cells: Hi5 insect cells (baculovirus infection); membrane preparation

[2] = system: Rodents; details: injected intracerebroventricularly (ICV); NPY, ob/ob, agouti, fasted feeding models; cited from earlier work
[3] = system: male volunteers / patients with psychogenic erectile dysfunction; details: cited from earlier work
[4] = intramuscular, 0.005-0.03 mg/kg, three normal male volunteers
[5] = subcutaneous, 0.025 mg/kg and 0.1 mg/kg, 10 patients with psychogenic erectile dysfunction

T1 sequence (P32245 whole entry): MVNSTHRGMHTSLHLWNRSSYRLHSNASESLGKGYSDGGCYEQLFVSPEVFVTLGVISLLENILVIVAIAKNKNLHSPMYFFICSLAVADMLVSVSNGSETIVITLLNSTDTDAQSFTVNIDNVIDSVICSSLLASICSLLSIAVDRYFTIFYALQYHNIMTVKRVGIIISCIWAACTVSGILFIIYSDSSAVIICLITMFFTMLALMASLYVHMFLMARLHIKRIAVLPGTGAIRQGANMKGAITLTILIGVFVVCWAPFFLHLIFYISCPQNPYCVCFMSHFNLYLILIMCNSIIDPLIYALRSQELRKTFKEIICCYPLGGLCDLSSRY

Work on `CC(=O)c1ccc(-c2ccc(C[C@H](N)C(=O)N3CCN(Cc4cccc(Cl)c4Cl)CC3)cc2)s1` [Example 342] yielded an inhibition at 10 µM [1] of 71 to 90% and a pIC50 [1] of 5.52 to 5.82.
In the case of `COc1ccc(-c2ccc(C[C@H](N)C(=O)N3CCN(Cc4cccc(Cl)c4Cl)CC3)cc2)cn1` [Example 343], the inhibition at 10 µM [1] was 35 to 70% and the pIC50 [1] was less than 5.52.
In the case of `N[C@@H](Cc1ccc(Oc2ccccc2)cc1)C(=O)N1CCN(Cc2cccc(Cl)c2Cl)CC1` [Example 344], the pIC50 [1] was less than 5.52.
For `Cc1ccc(Oc2ccc(C[C@H](N)C(=O)N3CCN(Cc4cccc(Cl)c4Cl)CC3)cc2)cc1` [Example 345], the pIC50 [1] was greater than 5.82.
With `N[C@@H](Cc1ccc(Oc2ccc(Cl)c(Cl)c2)cc1)C(=O)N1CCN(Cc2cccc(Cl)c2Cl)CC1` [Example 346] the pIC50 [1] was 5.52 to 5.82.
Compound `Cc1cccc(Oc2ccc(C[C@H](N)C(=O)N3CCN(Cc4cccc(Cl)c4Cl)CC3)cc2)c1` [Example 347] has a pIC50 [1] of 5.52 to 5.82.
`Cc1ccccc1Oc1ccc(C[C@H](N)C(=O)N2CCN(Cc3cccc(Cl)c3Cl)CC2)cc1` [Example 348] showed a pIC50 [1] of 5.52 to 5.82.
In the case of MT-II, the food intake [2] is listed as “reduced food intake”, the penile erections [3, 4] is listed as “intermittent non-painful penile erections” and the “period of erections after dosing” value [3, 4] is listed as 1 to 5 h. The “onset of transient erections” value [3, 5] was 50 to 180 min and the “responders with transient erections” value [3, 5] was 8.
In the case of SHU-9119, the food intake [2] is listed as “reverses this effect and can induce hyperphagia”.
